pIC50: −log10 of the molar value. Values after ≈ are worked out from the molar mass of the structure shown.
Assays:
[1] = system: prostate cancer cells (PC3 line); assay: MTT cytotoxicity assay, PC3; format: cell-based, human; conditions: for pIC50: Homo sapiens, PC-3; for pIC50 / IC50 PC3: PC3 cells, 48 h treatment, MTT; for SI PC3 (selectivity index): ratio of IC50 for normal cell line (HaCaT) to IC50 for PC3, 48 h
Experimental: (§1) The MTT assay was performed to specify the cytotoxicity of 7–12 and 13–18 against prostate cancer cells (PC3 line), breast cancer cells (MCF7 line), and human keratinocytes (HaCaT line). The mentioned cell lines were assayed by exposing them for 48 h to a medium containing the studied compounds over a wide range of concentrations. The IC50 values (dose of the compound which caused a 50% reduction of cell viability) and the selectivity indexes (SI), which show the ratio of IC50 for normal cell line to IC50 for cancer cell line, are shown in Table S2. An MTT assay was performed to specify the cytotoxicity of the studied compounds against breast cancer cells (MCF-7 line, ATCC), prostate cancer cells (PC3 line, ATCC) and human keratinocytes (HaCaT line, CLS). The MCF-7 cell line was cultured in an RPMI 1640 medium (Gibco, Thermo Fisher Scientific), the PC3 cell line in a F-12K medium (Gibco, Thermo Fisher Scientific), and the HaCaT cell line in a high-glucose DMEM (Gibco, Thermo Fisher Scientific). Each medium was supplemented with 10% fetal bovine serum (Gibco, Thermo Fisher Scientific) and antibiotics (penicillin and streptomycin, Gibco, Thermo Fisher Scientific). Cells were seeded at a density of 4000 per well into 96-well plates and incubated at 37 °C in a 5% CO2 atmosphere. The cells were treated with studied compounds in a concentration range of 0.1–100 μg/mL or with a vehicle (1% DMSO) as a control and subsequently incubated for 48 h. Thereafter, the MTT salt solution (3-(4,5-dimethylthiazol-2-yl)-2,5-diphenyltetrazolium bromide, VWR) was added at a concentration of 4 mg/mL (25 μL per well), and the obtained product (formazan) after 3 h of incubation was dissolved in DMSO. An EnSpire microplate reader (PerkinElmer) was used to measure absorbance at 570 nm (the reference wavelength was 660 nm). The viability of the control cells was taken as 100%. Three independent experiments were conducted in triplicate. Statistical analysis of the results and estimation of IC50 values were performed using GraphPad Prism 7 software.

S. aureus ATCC 6538 = assay: MIC, broth dilution method; format: cell-based; conditions: Staphylococcus aureus, ATCC6538; MHB II, 18 h, 37 °C; read-out: Minimum inhibitory concentration S. aureus ATCC 6538
Experimental: (§2) MIC was determined with the dilution method in Mueller–Hinton II broth (MHB II) on 96-well polystyrene plates. The reference strains (Polish Academy of Sciences, Wroclaw, Poland) of Gram-positive bacteria (Enterococcus faecium ATCC 29,212, S. aureus ATCC 6538, S. aureus ATCC 43,300, S. aureus ATCC 12,598, S. aureus ATCC 25,923, S. aureus, ATCC 33,591, Staphylococcus epidermidis ATCC 14,990) and Gram-negative bacteria (Acinetobacter baumanii ATCC 23,506, Escherichia coli ATCC 25,922, Klebsiella pneumoniae ATCC 700,603, Pseudomonas aeruginosa ATCC 9027) were suspended in MHB II medium to initial inoculum of 10^5 cfu/mL. The microbes were exposed to graded concentrations of tested compounds (range 0.5–256 mg/L) for 18 h at 37 °C under aerobic conditions. The compounds were dissolved in DMSO and then diluted with PBS. […] MIC was taken as the lowest concentration at which no microbial growth was observed. The experiments were performed in triplicate.

E. faecium ATCC 29212 = assay: MIC, broth dilution method; format: cell-based; conditions: Enterococcus faecium, ATCC29212; MHB II, 18 h, 37 °C; read-out: Minimum inhibitory concentration E. faecium ATCC 29212
Experimental: as §2

S. aureus ATCC 33591 = assay: MIC, broth dilution method; format: cell-based; conditions: Staphylococcus aureus, ATCC33591; MHB II, 18 h, 37 °C; read-out: Minimum inhibitory concentration S. aureus ATCC 33591
Experimental: as §2

S. aureus ATCC 43300 = assay: MIC, broth dilution method; format: cell-based; conditions: Staphylococcus aureus, ATCC43300; MHB II, 18 h, 37 °C; read-out: Minimum inhibitory concentration S. aureus ATCC 43300
Experimental: as §2

[2] = system: S. epidermidis ATCC 14990; assay: MIC, broth dilution method; format: cell-based; conditions: Staphylococcus epidermidis, ATCC14990; MHB II, 18 h, 37 °C; read-out: Minimum inhibitory concentration S. epidermidis ATCC 14990
Experimental: as §2

S. aureus ATCC 25923 = assay: MIC, broth dilution method; format: cell-based; conditions: Staphylococcus aureus, ATCC25923; MHB II, 18 h, 37 °C; read-out: Minimum inhibitory concentration S. aureus ATCC 25923
Experimental: as §2

S. aureus ATCC 12598 = assay: MIC, broth dilution method; format: cell-based; conditions: Staphylococcus aureus, ATCC12598; MHB II, 18 h, 37 °C; read-out: Minimum inhibitory concentration S. aureus ATCC 12598
Experimental: as §2

[3] = system: human keratinocytes (HaCaT line); assay: MTT cytotoxicity assay, HaCaT; format: cell-based; conditions: HaCaT normal cells, 48 h treatment; for pIC50: Homo sapiens
Experimental: as §1

[4] = system: breast cancer cells (MCF-7 line); assay: MTT cytotoxicity assay, MCF7; format: cell-based, human; conditions: for pIC50: Homo sapiens; for pIC50 / IC50 MCF7: MCF7 cells, 48 h treatment, MTT; for SI MCF7 (selectivity index): ratio of IC50 for normal cell line (HaCaT) to IC50 for MCF7, 48 h
Experimental: as §1

Row | SMILES | pIC50 [1] | SI PC3 (selectivity index) [1] | MIC (S. aureus ATCC 6538) [µg/mL] | MIC (E. faecium ATCC 29212) [µg/mL] | MIC (S. aureus ATCC 33591) [µg/mL] | MIC (S. aureus ATCC 43300) [µg/mL] | MIC [2] [µg/mL] | MIC (S. aureus ATCC 25923) [µg/mL] | MIC (S. aureus ATCC 12598) [µg/mL] | pIC50 [3] | pIC50 [4] | SI MCF7 (selectivity index) [4] | also measured
1 | C[C@@H]1CC[C@@]2(OC1)O[C@H]1C[C@H]3[C@@H]4CC=C5C[C@@H](O[C@@H]6C=C[C@H](O)[C@@H](CO)O6)CC[C@]5(C)[C@H]4CC[C@]3(C)[C@H]1[C@@H]2C [7α, Diosgenyl 2,3-Dideoxy-α-D-erythro-Hex-2-enopyranoside] | 4.77 | 1.20 | 256 (≈ 472 µM) | 256 (≈ 472 µM) | > 256 | > 256 | 256 (≈ 472 µM) | > 256 | > 256 | 4.70 | 4.25 | 0.36 | –
2 | C[C@@H]1CC[C@@]2(OC1)O[C@H]1C[C@H]3[C@@H]4CC=C5C[C@@H](O[C@H]6C=C[C@H](O)CO6)CC[C@]5(C)[C@H]4CC[C@]3(C)[C@H]1[C@@H]2C [11β] | – | – | > 256 | > 256 | > 256 | > 256 | > 256 | > 256 | > 256 | – | – | – | IC50 PC3 [1]: completely inactive; IC50 PC3 ([1]; listed as 11): inactive; IC50 HaCaT [3]: completely inactive; IC50 HaCaT ([3]; listed as 11): inactive; IC50 MCF7 [4]: completely inactive; IC50 MCF7 ([4]; listed as 11): inactive
3 | C[C@@H]1CC[C@@]2(OC1)O[C@H]1C[C@H]3[C@@H]4CC=C5C[C@@H](O[C@@H]6C=C[C@H](O)CO6)CC[C@]5(C)[C@H]4CC[C@]3(C)[C@H]1[C@@H]2C [11α] | 4.61 | 1.00 | 256 (≈ 499 µM) | > 256 | > 256 | > 256 | 256 (≈ 499 µM) | > 256 | > 256 | 4.61 | 4.39 | 0.60 | –
4 | C[C@@H]1CC[C@@]2(OC1)O[C@H]1C[C@H]3[C@@H]4CC=C5C[C@@H](O[C@H]6CC[C@@H](O)[C@H](C)O6)CC[C@]5(C)[C@H]4CC[C@]3(C)[C@H]1[C@@H]2C [15α, Diosgenyl 2,3,6-Trideoxy-α-L-erythro-hexopyranoside] | 4.58 | – | 256 (≈ 484 µM) | > 256 | > 256 | > 256 | > 256 | 256 (≈ 484 µM) | > 256 | 4.25 | 4.06 | – | –
5 | C[C@@H]1CC[C@@]2(OC1)O[C@H]1C[C@H]3[C@@H]4CC=C5C[C@@H](O[C@H]6C=C[C@H](O)[C@H](C)O6)CC[C@]5(C)[C@H]4CC[C@]3(C)[C@H]1[C@@H]2C [10α, Diosgenyl 2,3,6-Trideoxy-α-L-threo-hex-2-enopyranoside] | 4.30 | 1.02 | > 256 | > 256 | > 256 | > 256 | > 256 | > 256 | > 256 | 4.29 | 4.24 | 0.88 | –
6 | C[C@@H]1CC[C@@]2(OC1)O[C@H]1C[C@H]3[C@@H]4CC=C5C[C@@H](O[C@H]6C=C[C@@H](O)[C@H](C)O6)CC[C@]5(C)[C@H]4CC[C@]3(C)[C@H]1[C@@H]2C [9α, Diosgenyl 2,3,6-Trideoxy-α-L-erythro-hex-2-enopyranoside] | 4.60 | 1.71 | > 256 | > 256 | > 256 | > 256 | > 256 | > 256 | > 256 | 4.36 | 3.74 | 0.24 | –
7 | C[C@@H]1CC[C@@]2(OC1)O[C@H]1C[C@H]3[C@@H]4CC=C5C[C@@H](O[C@@H]6C=C[C@@H](O)CO6)CC[C@]5(C)[C@H]4CC[C@]3(C)[C@H]1[C@@H]2C [12β] | 4.56 | – | 256 (≈ 499 µM) | > 256 | > 256 | > 256 | > 256 | > 256 | > 256 | 4.24 | 4.45 | ca. 2 | SI MCF7 (selectivity index) ([4]; listed as 12): 1.62
8 | C[C@@H]1CC[C@@]2(OC1)O[C@H]1C[C@H]3[C@@H]4CC=C5C[C@@H](O[C@@H]6CC[C@@H](O)CO6)CC[C@]5(C)[C@H]4CC[C@]3(C)[C@H]1[C@@H]2C [18β] | 4.54 | ca. 2 | > 256 | > 256 | > 256 | > 256 | > 256 | > 256 | > 256 | 4.22 | 4.57 | ca. 2 | SI PC3 (selectivity index) ([1]; listed as 18): 2.07; SI MCF7 (selectivity index) ([4]; listed as 18): 2.23
9 | C[C@@H]1CC[C@@]2(OC1)O[C@H]1C[C@H]3[C@@H]4CC=C5C[C@@H](O[C@@H]6CC[C@H](O)[C@@H](CO)O6)CC[C@]5(C)[C@H]4CC[C@]3(C)[C@H]1[C@@H]2C [13α, Diosgenyl 2,3-Dideoxy-α-D-erythro-hexopyranoside] | 4.65 | 0.96 | > 256 | > 256 | > 256 | > 256 | > 256 | > 256 | > 256 | 4.67 | 4.41 | 0.56 | –
10 | C[C@@H]1CC[C@@]2(OC1)O[C@H]1C[C@H]3[C@@H]4CC=C5C[C@@H](O[C@@H]6C=C[C@@H](O)[C@@H](CO)O6)CC[C@]5(C)[C@H]4CC[C@]3(C)[C@H]1[C@@H]2C [8α, Diosgenyl 2,3-Dideoxy-α-D-threo-hex-2-enopyranoside] | 4.67 | 1.04 | > 256 | > 256 | > 256 | > 256 | > 256 | > 256 | > 256 | 4.65 | 4.35 | 0.49 | –
11 | C[C@@H]1CC[C@@]2(OC1)O[C@H]1C[C@H]3[C@@H]4CC=C5C[C@@H](OC6CC[C@H](O)CO6)CC[C@]5(C)[C@H]4CC[C@]3(C)[C@H]1[C@@H]2C (stereo partly drawn) [17β] | 4.63 | 1.46 | 256 (≈ 497 µM) | > 256 | > 256 | > 256 | > 256 | > 256 | > 256 | 4.47 | 4.58 | 1.29 | –

— publication PMC11494662, “Insight into the Course of the Ferrier Rearrangement Used to Obtain Untypical Diosgenyl Saponins” (The Journal of Organic Chemistry, 2024)
